Reference: ChEMBL document CHEMBL5380833 (J Med Chem, 2023)

Columns and labels:
[1] = biological target: T1, Protein cereblon/Tyrosine-protein kinase ITK/TSK (Homo sapiens, UniProt Q08881+Q96SW2); experiment: PROTAC activity at CRBN/ITK in human Jurkat cells assessed as induction of ITK degradation by Western blot analysis; format: cell-based
Target sequence in this assay (Q96SW2 whole entry, one chain of several): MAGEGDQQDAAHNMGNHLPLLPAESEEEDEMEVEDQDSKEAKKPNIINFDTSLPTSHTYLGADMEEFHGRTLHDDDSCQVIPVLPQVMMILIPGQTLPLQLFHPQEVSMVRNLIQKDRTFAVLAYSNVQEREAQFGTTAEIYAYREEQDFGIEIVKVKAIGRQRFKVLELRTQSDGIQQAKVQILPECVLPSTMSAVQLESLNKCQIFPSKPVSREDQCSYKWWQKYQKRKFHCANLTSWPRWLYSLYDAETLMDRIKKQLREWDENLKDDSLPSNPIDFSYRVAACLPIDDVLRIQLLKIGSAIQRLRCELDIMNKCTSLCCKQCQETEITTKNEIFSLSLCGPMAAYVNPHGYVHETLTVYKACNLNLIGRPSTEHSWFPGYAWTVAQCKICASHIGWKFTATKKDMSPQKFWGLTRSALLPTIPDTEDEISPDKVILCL

[2] = biological target: T1, Protein cereblon/Tyrosine-protein kinase ITK/TSK; experiment: PROTAC activity at CRBN/ITK in human Jurkat cells assessed as maximum degradation at 0.01 to 10 uM by Western blot analysis relative to control; format: cell-based; settings: dose 0.01-10 µM
Target sequence in this assay (Q96SW2 whole entry, looked up, one chain of several): as the sequence (Q96SW2 whole entry, one chain of several) above

[3] = biological target: T2, Tyrosine-protein kinase ITK/TSK (Homo sapiens, UniProt Q08881); experiment: Inhibition of ITK (unknown origin)
T2 sequence (Q08881 whole entry): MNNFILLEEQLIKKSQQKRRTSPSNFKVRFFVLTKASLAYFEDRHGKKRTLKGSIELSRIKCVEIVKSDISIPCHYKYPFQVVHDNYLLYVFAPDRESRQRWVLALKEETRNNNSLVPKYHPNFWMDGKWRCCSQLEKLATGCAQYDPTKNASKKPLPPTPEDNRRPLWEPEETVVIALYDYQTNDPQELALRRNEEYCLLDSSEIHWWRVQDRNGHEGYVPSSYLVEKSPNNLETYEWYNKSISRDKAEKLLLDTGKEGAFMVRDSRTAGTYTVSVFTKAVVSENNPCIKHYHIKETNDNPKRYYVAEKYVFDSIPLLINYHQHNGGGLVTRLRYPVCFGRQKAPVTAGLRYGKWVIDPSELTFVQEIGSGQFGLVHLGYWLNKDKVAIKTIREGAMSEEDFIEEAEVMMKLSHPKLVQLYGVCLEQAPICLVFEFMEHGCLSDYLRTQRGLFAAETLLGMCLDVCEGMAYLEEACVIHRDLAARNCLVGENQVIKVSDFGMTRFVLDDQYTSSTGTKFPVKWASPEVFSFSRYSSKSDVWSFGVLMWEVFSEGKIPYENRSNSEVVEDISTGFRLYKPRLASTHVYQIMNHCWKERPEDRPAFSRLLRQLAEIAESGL

[4] = biological target: Interleukin-2 (Homo sapiens, UniProt P60568); experiment: Inhibition of IL-2 in human Jurkat T cells pretreated with compound for 16 hrs followed by anti-CD3 stimulation by ELISA analysis; format: cell-based
Sequence of Interleukin-2 (P60568 whole entry): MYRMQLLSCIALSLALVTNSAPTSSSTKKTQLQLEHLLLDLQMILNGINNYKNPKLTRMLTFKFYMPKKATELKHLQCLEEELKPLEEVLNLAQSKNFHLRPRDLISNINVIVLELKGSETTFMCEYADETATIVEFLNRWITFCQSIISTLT

EC50 ([1]; read-out: EC50) [nM] | Emax [2] [%] | IC50 [3] [nM] | EC50 ([1]; jurkat) | EC50 [4] [nM] | Compound
62.2 | 93 |  |  |  | CN(CCOCCOCCOCCNC(=O)CNc1cccc2c1C(=O)N(C1CCC(=O)NC1=O)C2=O)CC[C@@H](c1ccccc1)n1cc(NC(=O)c2n[nH]c3c2CCC(C)(C)C3)cn1 (some centres not stated)
32.7 | 99 |  |  |  | CN(CCOCCNC(=O)CNc1cccc2c1C(=O)N(C1CCC(=O)NC1=O)C2=O)CC[C@@H](c1ccccc1)n1cc(NC(=O)c2n[nH]c3c2CCC(C)(C)C3)cn1 (some centres not stated)
32.7 | 95 |  |  |  | CN(CCOCCOCCNC(=O)CNc1cccc2c1C(=O)N(C1CCC(=O)NC1=O)C2=O)CC[C@@H](c1ccccc1)n1cc(NC(=O)c2n[nH]c3c2CCC(C)(C)C3)cn1 (some centres not stated)
353 | 75 |  |  |  | CN(CCOCCOCCOCC(=O)Nc1cccc2c1C(=O)N(C1CCC(=O)NC1=O)C2=O)CC[C@@H](c1ccccc1)n1cc(NC(=O)c2n[nH]c3c2CCC(C)(C)C3)cn1 (some centres not stated)
10 | 85 |  |  |  | CC1(C)CCc2c(C(=O)Nc3cnn([C@@H](CCN4CCN(CC5CN(c6ccc7c(c6)C(=O)N(C6CCC(=O)NC6=O)C7=O)C5)CC4)c4ccccc4)c3)n[nH]c2C1 (some centres not stated)
26.7 | 95 |  |  |  | CN(CCOCCOCC(=O)Nc1ccc2c(c1)C(=O)N(C1CCC(=O)NC1=O)C2=O)CC[C@@H](c1ccccc1)n1cc(NC(=O)c2n[nH]c3c2CCC(C)(C)C3)cn1 (some centres not stated)
220 | 75 |  |  |  | CN(CCOCCOCC(=O)Nc1cccc2c1C(=O)N(C1CCC(=O)NC1=O)C2=O)CC[C@@H](c1ccccc1)n1cc(NC(=O)c2n[nH]c3c2CCC(C)(C)C3)cn1 (some centres not stated)
142 | 90 |  |  |  | CC1(C)CCc2c(C(=O)Nc3cnn([C@@H](CCN4CCN(CCC5CN(c6ccc7c(c6)C(=O)N(C6CCC(=O)NC6=O)C7=O)C5)CC4)c4ccccc4)c3)n[nH]c2C1 (some centres not stated)
29.3 | 90 |  |  |  | CC1(C)CCc2c(C(=O)Nc3cnn([C@@H](CCN4CCN(CC5CCN(c6ccc7c(c6)C(=O)N(C6CCC(=O)NC6=O)C7=O)CC5)CC4)c4ccccc4)c3)n[nH]c2C1 (some centres not stated)
106 | 92 |  |  |  | CN(CCOCCOCCOCCOCC(=O)Nc1ccc2c(c1)C(=O)N(C1CCC(=O)NC1=O)C2=O)CC[C@@H](c1ccccc1)n1cc(NC(=O)c2n[nH]c3c2CCC(C)(C)C3)cn1 (some centres not stated)
 |  | < 4 |  |  | COc1cccc(-n2c(=O)c(C(=O)Nc3ccc(-c4nc(-c5ccnc(N6CC(OC)C6)c5)cnc4N)nc3)c(C)n2C)c1
 |  |  | Not Active |  | CN(CCCCCC(=O)Nc1ccc2c(c1)C(=O)N(C1CCC(=O)N(C)C1=O)C2=O)CC[C@@H](c1ccccc1)n1cc(NC(=O)c2n[nH]c3c2CCC(C)(C)C3)cn1 (some centres not stated)
5.3 | 90 |  |  |  | CN(CCCCC(=O)Nc1ccc2c(c1)C(=O)N(C1CCC(=O)NC1=O)C2=O)CC[C@@H](c1ccccc1)n1cc(NC(=O)c2n[nH]c3c2CCC(C)(C)C3)cn1 (some centres not stated)
9 | 90 |  |  |  | CN(CCCCCCC(=O)Nc1ccc2c(c1)C(=O)N(C1CCC(=O)NC1=O)C2=O)CC[C@@H](c1ccccc1)n1cc(NC(=O)c2n[nH]c3c2CCC(C)(C)C3)cn1 (some centres not stated)
 |  |  |  | 238 | COc1cc(C)c(Sc2cnc(NC(=O)c3ccc(CNC(C)C(C)(C)C)cc3)s2)cc1C(=O)N1CCN(C(C)=O)CC1 (configuration not stated)
15.6 | 97 |  |  |  | CN(CCOCCC(=O)NC1=CCC2C(=O)N(C3CCC(=O)NC3=O)C(=O)C2=C1)CC[C@@H](c1ccccc1)n1cc(NC(=O)c2n[nH]c3c2CCC(C)(C)C3)cn1 (some centres not stated)
5.5 | 93 |  |  |  | CN(CCCCCCCCC(=O)Nc1ccc2c(c1)C(=O)N(C1CCC(=O)NC1=O)C2=O)CC[C@@H](c1ccccc1)n1cc(NC(=O)c2n[nH]c3c2CCC(C)(C)C3)cn1 (some centres not stated)
94.1 | 93 |  |  |  | CN(CCOCCOCCOCC(=O)Nc1ccc2c(c1)C(=O)N(C1CCC(=O)NC1=O)C2=O)CC[C@@H](c1ccccc1)n1cc(NC(=O)c2n[nH]c3c2CCC(C)(C)C3)cn1 (some centres not stated)
286 | 75 |  |  |  | CN(CCOCCOCCOCCOCC(=O)Nc1cccc2c1C(=O)N(C1CCC(=O)NC1=O)C2=O)CC[C@@H](c1ccccc1)n1cc(NC(=O)c2n[nH]c3c2CCC(C)(C)C3)cn1 (some centres not stated)
75.4 | 82 |  |  |  | CN(CCCCCCCCCCC(=O)Nc1ccc2c(c1)C(=O)N(C1CCC(=O)NC1=O)C2=O)CC[C@@H](c1ccccc1)n1cc(NC(=O)c2n[nH]c3c2CCC(C)(C)C3)cn1 (some centres not stated)
